Results taken from PMC13385394, “Cryo-EM Structure of the TRPC1/5 Heteromer Enables Design of Antidepressant and Anxiolytic Drug with Reduced Side Effects” (Nature Communications, 2026).
“And” between values parts separate entries of the source, which are not always exact repeats. Equal entries are not always repeated.

Assays:
[1] = system: CUMS-induced depressive-like behaviors; experiment: Forced swim test (FST) in CUMS model; type: in vivo, mouse; conditions: CUMS mice; 14 days once-daily oral; vs vehicle
Experimental: (§1) The stressors included food and water deprivation, foot shock, wet bedding, cage tilting, restraint, shaking, and olfactory stimulation. These seven stressors were randomly applied each week to ensure unpredictability. The stress induction was maintained continuously for 28 days. Following model establishment, the tail suspension test (TST) was performed to confirm the successful induction of depressive-like behaviors. Mice that met the criteria were randomly assigned to experimental groups. Chronic Treatment: Mice were treated daily for 14 consecutive days. The SPT was conducted on day 11, and the forced swimming test (FST) was performed on day 14.

mCPP-induced anxiety = experiment: Elevated plus maze (EPM) test, mCPP-induced anxiety model; conditions: mCPP mice; single dose; JD03-02 3, 10, 30 mg/kg i.g.
[2] = system: CUMS-induced depressive-like behaviors; experiment: Sucrose preference test (SPT) in CUMS model; type: in vivo, mouse; conditions: CUMS mice
Experimental: as §1, with “groups.” for “groups. Chronic Treatment: Mice were treated daily for 14 consecutive days. The SPT was conducted on day 11, and the forced swimming test (FST) was performed on day 14.”
Acute Treatment: A single dose of the test compound was administered, followed by the sucrose preference test (SPT).
Chronic Treatment: Mice were treated daily for 14 consecutive days. The SPT was conducted on day 11, and the forced swimming test (FST) was performed on day 14.
Mice were acclimated to 1% sucrose solution and plain water for 2 days. On the second day, the positions of the sucrose solution and water were swapped to eliminate positional bias. […] Mice were provided with pre-weighed 1% sucrose solution and plain water. […] Sucrose preference (%) was calculated as Sucrose Preference = A/(A + B)×100.

[3] = system: TRPC1 or TRPC5 mutations within the TRPC1/5 heteromer; experiment: Whole-cell patch-clamp, inhibition of TRPC1/5 heteromers carrying TRPC1 or TRPC5 mutations (e.g. TRPC1 F595A); type: cell-based; conditions: TRPC1 F595A/C5 vs WT TRPC1/5
From the text: The full-length hTRPC5 or truncated mTRPC5, and the full-length hTRPC1 constructs was respectively co-transfected in a plasmid ration 1:3 (w/w) into HEK293T cells (from the ATCC). As previously described, a mCherry was inserted into TRPC5 constructs and a GFP was inserted at the C terminus of TRPC1. Therefore, Cells with red and green fluorescence were selected for whole-cell patch recordings (HEKA EPC10 amplifier, […] software (https://www.heka.com/downloads/downloads_main.html#down_patchmaster)). A 1-s ramp protocol from −100 to +100 mV was applied at a frequency of 0.2 Hz. Signals were sampled at 50 kHz and filtered at 2.9 kHz. The pipette solution contained 130 mM CsCl, 1 mM MgCl2, 5.7 mM CaCl2, 10 mM EGTA, and 10 mM Hepes (calculated free Ca^2+, 200 nM), and the pH was titrated to 7.2 using CsOH[40]. The standard bath solution contained 140 mM NaCl, 5 mM KCl, 1 mM MgCl2, 2 mM CaCl2, 10 mM Hepes, and 10 mM D-glucose, and the pH was adjusted to 7.4 with NaOH (1 M). The recording chamber (150 μL) was perfused at a rate of ~2 mL/min. All recordings were performed at room temperature. In this experiment, TRPC5 homomers or TRPC1/5 heteromers were activated using the TRPC1/4/5 agonist Englerin A (EA).
(§2) Error bars represent the standard error of the mean (SEM, n = 6 independent
(§3) Error bars represent the standard error of the
(§4) 110 mean (SEM, n = 5 independent cells).

TRPC3 homomer = target: T1, TRPC3 homomer (Homo sapiens, UniProt Q13507); experiment: Whole-cell patch-clamp, inhibition of TRPC3 homomer; type: cell-based
T1 construct: expressed in transfected cells
T1 sequence (Q13507 1-921): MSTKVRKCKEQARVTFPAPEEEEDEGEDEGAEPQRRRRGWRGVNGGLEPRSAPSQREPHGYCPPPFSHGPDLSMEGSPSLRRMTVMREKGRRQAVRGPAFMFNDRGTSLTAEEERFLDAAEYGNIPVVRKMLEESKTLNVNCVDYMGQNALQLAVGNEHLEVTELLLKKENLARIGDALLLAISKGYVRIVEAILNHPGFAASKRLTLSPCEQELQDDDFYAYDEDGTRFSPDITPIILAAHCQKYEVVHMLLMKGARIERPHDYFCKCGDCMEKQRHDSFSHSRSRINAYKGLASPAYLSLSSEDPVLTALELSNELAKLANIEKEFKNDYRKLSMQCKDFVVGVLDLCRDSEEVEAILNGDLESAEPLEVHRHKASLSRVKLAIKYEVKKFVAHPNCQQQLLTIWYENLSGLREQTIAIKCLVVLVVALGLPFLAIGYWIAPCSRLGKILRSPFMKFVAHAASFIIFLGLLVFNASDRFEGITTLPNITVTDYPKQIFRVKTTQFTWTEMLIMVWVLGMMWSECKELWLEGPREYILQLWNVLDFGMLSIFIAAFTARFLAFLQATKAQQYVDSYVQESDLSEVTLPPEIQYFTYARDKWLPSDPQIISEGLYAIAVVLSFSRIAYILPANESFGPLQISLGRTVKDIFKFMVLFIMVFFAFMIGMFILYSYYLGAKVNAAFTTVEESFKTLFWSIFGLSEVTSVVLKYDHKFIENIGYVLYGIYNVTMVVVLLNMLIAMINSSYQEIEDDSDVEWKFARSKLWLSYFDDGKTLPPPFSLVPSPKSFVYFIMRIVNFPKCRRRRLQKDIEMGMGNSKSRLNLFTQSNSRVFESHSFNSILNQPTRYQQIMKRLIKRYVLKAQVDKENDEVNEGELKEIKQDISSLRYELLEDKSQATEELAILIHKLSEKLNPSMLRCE
From the text: as §2, §3, §4

TRPC1/4 heteromer = target: T2, TRPC1/4 heteromer (Homo sapiens, UniProt P48995+Q9UBN4); experiment: Whole-cell patch-clamp, inhibition of TRPC1/4 heteromer; type: cell-based; conditions: read-out: IC50, TRPC1/4 heteromers
T2 construct: expressed in transfected cells
T2 sequence (P48995 whole entry): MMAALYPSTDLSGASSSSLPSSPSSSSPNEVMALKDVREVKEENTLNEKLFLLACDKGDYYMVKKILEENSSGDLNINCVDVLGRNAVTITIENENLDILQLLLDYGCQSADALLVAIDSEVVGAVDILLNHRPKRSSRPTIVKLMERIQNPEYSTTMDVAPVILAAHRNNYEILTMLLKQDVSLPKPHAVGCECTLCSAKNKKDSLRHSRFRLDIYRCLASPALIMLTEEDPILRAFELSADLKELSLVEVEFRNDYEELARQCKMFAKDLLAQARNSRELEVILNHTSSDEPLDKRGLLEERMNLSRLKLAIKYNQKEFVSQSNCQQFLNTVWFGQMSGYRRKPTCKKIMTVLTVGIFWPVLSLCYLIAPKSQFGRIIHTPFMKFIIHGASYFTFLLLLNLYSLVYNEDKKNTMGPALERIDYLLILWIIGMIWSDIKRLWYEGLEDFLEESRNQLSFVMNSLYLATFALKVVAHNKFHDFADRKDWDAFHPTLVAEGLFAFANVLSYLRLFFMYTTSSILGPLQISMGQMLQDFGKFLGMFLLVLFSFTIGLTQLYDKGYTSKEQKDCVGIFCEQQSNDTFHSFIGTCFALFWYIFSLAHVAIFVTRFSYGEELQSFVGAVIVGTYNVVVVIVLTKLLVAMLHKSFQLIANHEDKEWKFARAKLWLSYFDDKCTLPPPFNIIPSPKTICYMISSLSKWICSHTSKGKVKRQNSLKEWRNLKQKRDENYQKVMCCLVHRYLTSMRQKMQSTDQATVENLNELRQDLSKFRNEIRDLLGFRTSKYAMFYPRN
T2 sequence (Q9UBN4 whole entry): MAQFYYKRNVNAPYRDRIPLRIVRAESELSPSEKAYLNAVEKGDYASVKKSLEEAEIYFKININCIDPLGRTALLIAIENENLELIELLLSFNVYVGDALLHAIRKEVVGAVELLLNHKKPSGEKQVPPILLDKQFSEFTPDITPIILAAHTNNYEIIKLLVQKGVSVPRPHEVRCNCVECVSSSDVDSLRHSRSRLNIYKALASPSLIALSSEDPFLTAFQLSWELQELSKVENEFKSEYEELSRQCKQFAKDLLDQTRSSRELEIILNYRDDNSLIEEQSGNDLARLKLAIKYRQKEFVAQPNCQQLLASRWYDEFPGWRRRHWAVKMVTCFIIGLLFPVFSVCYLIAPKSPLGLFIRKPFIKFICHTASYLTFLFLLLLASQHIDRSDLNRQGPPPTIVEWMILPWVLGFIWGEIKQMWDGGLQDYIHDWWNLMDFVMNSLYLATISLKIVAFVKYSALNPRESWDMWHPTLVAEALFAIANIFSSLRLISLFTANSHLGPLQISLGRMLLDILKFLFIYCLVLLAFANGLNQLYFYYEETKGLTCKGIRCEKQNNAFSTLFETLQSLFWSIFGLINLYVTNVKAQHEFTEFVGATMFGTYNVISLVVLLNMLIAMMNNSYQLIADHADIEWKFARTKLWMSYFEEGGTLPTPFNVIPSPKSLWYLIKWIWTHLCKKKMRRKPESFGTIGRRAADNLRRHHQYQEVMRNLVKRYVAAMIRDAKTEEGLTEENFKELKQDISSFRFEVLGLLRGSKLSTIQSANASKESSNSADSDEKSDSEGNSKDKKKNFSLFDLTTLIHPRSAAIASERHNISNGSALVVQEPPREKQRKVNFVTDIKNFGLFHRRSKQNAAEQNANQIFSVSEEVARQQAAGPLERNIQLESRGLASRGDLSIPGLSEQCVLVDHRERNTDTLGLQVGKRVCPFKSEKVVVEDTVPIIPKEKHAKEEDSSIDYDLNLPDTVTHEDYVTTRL

CN(C)CCCCn1c(=O)c2c(nc(Oc3cccc(Cl)c3)n2Cc2ccc(Cl)cc2)n(C)c1=O [H08]
immobility (FST), repeated dosing [1]: reduced immobility | EPM open arm entries and time in open arms (mCPP-induced anxiety): increasing numbers of open arm entries and time spent in open arms | sucrose intake (SPT), repeated dosing ([2]; 11 days once-daily oral, vs vehicle): significantly improved sucrose intake | sucrose preference (SPT), single dose ([2]; single oral dose, JD03-02 30 mg/kg, 30 mg/kg): significantly increased sucrose preference | increase in IC50 on alanine substitution of F595 in TRPC1 [3]: ~ 100 fold | IC50 (TRPC3 homomer): > 10000 nM | inhibition of TRPC3 (TRPC3 homomer; 10 μM): no more than 40% | IC50 (TRPC1/4 heteromer): 6.68 nM and 6.7 nM
